Reference: the supplement of paper PMC6045584
± gives the standard deviation of the averaged measurements.

Tests used:
FLAVOPIRIDOL = compound: CN1CC[C@H](c2c(O)cc(O)c3c(=O)cc(-c4ccccc4Cl)oc23)[C@H](O)C1 [FLAVOPIRIDOL]; assay: surviving fraction relative to DMSO-only wells; higher = less growth inhibition; conditions: exposure time: 5 days
How it was run: (§1)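 Surviving fraction is CellTiter-Glo luminescence divided by the median of wells given DMSO only. For this, log-phase tumour cell lines went into 384-well plates at 250–500 cells per well and, 24 hours later, into five days of continuous inhibitor exposure at 0.5, 1, 5, 10, 50, 100, 500 and 1000 nM. Lines were screened three times and retained only if replicate Pearson r >0.7 and median Z' >0.3.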

LAPATINIB = compound: CS(=O)(=O)CCNCc1ccc(-c2ccc3ncnc(Nc4ccc(OCc5cccc(F)c5)c(Cl)c4)c3c2)o1 [LAPATINIB]; assay: as above; conditions: exposure time: 5 days
How it was run: as §1

Test System	surviving fraction (FLAVOPIRIDOL; 0.5 nM)	surviving fraction (FLAVOPIRIDOL; 1 nM)	surviving fraction (FLAVOPIRIDOL; 5 nM)	surviving fraction (FLAVOPIRIDOL; 10 nM)	surviving fraction (FLAVOPIRIDOL; 50 nM)	surviving fraction (FLAVOPIRIDOL; 100 nM)	surviving fraction (FLAVOPIRIDOL; 500 nM)	surviving fraction (FLAVOPIRIDOL; 1000 nM)	surviving fraction (LAPATINIB; 0.5 nM)	surviving fraction (LAPATINIB; 1 nM)	surviving fraction (LAPATINIB; 5 nM)	surviving fraction (LAPATINIB; 10 nM)	surviving fraction (LAPATINIB; 50 nM)	surviving fraction (LAPATINIB; 100 nM)	surviving fraction (LAPATINIB; 500 nM)	surviving fraction (LAPATINIB; 1000 nM)
KPD BONE	0.881 ± 0.31	1.01 ± 0.074	1.08 ± 0.048	0.997 ± 0.03	0.525 ± 0.035	0.101 ± 0.015	0.031 ± 0.0017	0.0277 ± 0.006	0.984 ± 0.055	1.08 ± 0.03	1.05 ± 0.02	1.03 ± 0.049	1.09 ± 0.06	1.08 ± 0.066	0.956 ± 0.08	0.951 ± 0.094
HUO3N1 BONE	1.07 ± 0.016	1 ± 0.022	1.14 ± 0.033	1.12 ± 0.03	1.26 ± 0.052	0.929 ± 0.077	0.0483 ± 0.0011	0.039 ± 0.0061	1.05 ± 0.044	0.978 ± 0.069	1.08 ± 0.038	1.084 ± 0.01	1.02 ± 0.037	1.06 ± 0.043	0.876 ± 0.15	1 ± 0.065
OSHN BONE	1.08 ± 0.018	1.08 ± 0.022	1.114 ± 0.0095	1.08 ± 0.018	1.23 ± 0.035	0.382 ± 0.041	0.0357 ± 0.0055	0.0323 ± 0.0075	1.03 ± 0.026	1.098 ± 0.0061	1.09 ± 0.025	1.1 ± 0.011	1.05 ± 0.02	1.08 ± 0.015	1.067 ± 0.0071	1.1 ± 0.015
C33A CERVIX	0.991 ± 0.084	1.1 ± 0.041	1.12 ± 0.067	1.31 ± 0.13	0.923 ± 0.13	0.366 ± 0.011	0.028 ± 0.0027	0.0277 ± 0.0072	0.988 ± 0.07	1.03 ± 0.041	1.11 ± 0.036	1.02 ± 0.045	0.887 ± 0.037	0.859 ± 0.017	0.62 ± 0.014	0.537 ± 0.017
SUM149 BREAST	0.955 ± 0.031	1.07 ± 0.051	1.06 ± 0.033	1.06 ± 0.087	0.681 ± 0.027	0.0783 ± 0.029	0.018 ± 0.0027	0.0183 ± 0.0032	0.945 ± 0.078	0.988 ± 0.11	0.943 ± 0.043	0.889 ± 0.12	0.741 ± 0.046	0.656 ± 0.019	0.492 ± 0.018	0.424 ± 0.047
ASKA SYNOVIAL	1.02 ± 0.087	1.02 ± 0.066	1.11 ± 0.054	1.11 ± 0.036	0.507 ± 0.065	0.202 ± 0.01	0.186 ± 0.012	0.261 ± 0.0078	1.17 ± 0.046	1.1 ± 0.012	1.13 ± 0.045	1.16 ± 0.053	1.21 ± 0.092	1.19 ± 0.069	1.16 ± 0.1	1.15 ± 0.068
SIHA CERVIX	1.07 ± 0.041	1.05 ± 0.067	1.1 ± 0.081	1.03 ± 0.032	0.714 ± 0.045	0.336 ± 0.056	0.0243 ± 0.0015	0.023 ± 0.001	1.05 ± 0.033	1.14 ± 0.021	1.06 ± 0.02	1.11 ± 0.037	1.03 ± 0.031	1.02 ± 0.086	1.05 ± 0.06	1.1 ± 0.042
SUM159 BREAST	1.08 ± 0.024	1.08 ± 0.021	1.09 ± 0.014	1.049 ± 0.0055	1.08 ± 0.026	0.44 ± 0.082	0.0913 ± 0.0097	0.0957 ± 0.0072	1.08 ± 0.022	1.13 ± 0.018	1.1 ± 0.037	1.07 ± 0.014	1.06 ± 0.029	1.1 ± 0.036	1.043 ± 0.01	1.03 ± 0.013
HOS BONE	1.02 ± 0.018	1.03 ± 0.011	1.034 ± 0.01	1.04 ± 0.019	0.9813 ± 0.0095	0.352 ± 0.02	0.0367 ± 0.0072	0.035 ± 0.003	1.017 ± 0.01	1.082 ± 0.01	1.059 ± 0.01	1.03 ± 0.011	1.05 ± 0.023	1.05 ± 0.034	1.039 ± 0.0051	1.04 ± 0.018
LM7 BONE	1.06 ± 0.022	1.08 ± 0.096	1.15 ± 0.11	1.1 ± 0.091	0.824 ± 0.031	0.446 ± 0.016	0.0593 ± 0.0038	0.0543 ± 0.0029	0.936 ± 0.046	1.07 ± 0.079	1.1 ± 0.034	1.1 ± 0.042	0.99 ± 0.057	1.06 ± 0.02	0.991 ± 0.022	0.955 ± 0.041
